# How the values were obtained:
# [1] = tested on: Preglomerular vascular smooth muscle cells; experiment: O2- generation in Ang II-stimulated preglomerular vascular smooth muscle cells; format: cell-based; details: cells stimulated by 10^−6 M Ang II
# Description: Preglomerular vascular smooth muscle cells were stimulated by 10^−6 M Ang II to produce O2^−.
# [2] = molecular target: T1, AT2, angiotensin II (Homo sapiens, UniProt P50052); experiment: Angiotensin II AT2 receptor inhibition; format: binding; details: at 1.0 × 10^−9M drug, N = 2
# T1 sequence (P50052 1-363): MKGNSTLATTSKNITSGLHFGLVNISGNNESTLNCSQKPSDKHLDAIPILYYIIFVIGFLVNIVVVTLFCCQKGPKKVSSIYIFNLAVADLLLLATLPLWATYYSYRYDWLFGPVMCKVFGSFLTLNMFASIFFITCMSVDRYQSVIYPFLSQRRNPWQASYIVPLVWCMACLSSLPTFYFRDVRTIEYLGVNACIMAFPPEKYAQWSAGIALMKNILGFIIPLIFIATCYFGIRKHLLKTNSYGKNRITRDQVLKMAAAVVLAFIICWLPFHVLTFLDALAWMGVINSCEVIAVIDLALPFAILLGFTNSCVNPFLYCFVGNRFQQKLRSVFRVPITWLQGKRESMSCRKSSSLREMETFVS
# [3] = molecular target: T2, Human AT1 (Homo sapiens, UniProt P30556); experiment: Angiotensin II AT1 receptor inhibition; format: binding; details: Human AT1, at 1.0 × 10^−8M drug, N = 2
# T2 sequence (P30556 1-359): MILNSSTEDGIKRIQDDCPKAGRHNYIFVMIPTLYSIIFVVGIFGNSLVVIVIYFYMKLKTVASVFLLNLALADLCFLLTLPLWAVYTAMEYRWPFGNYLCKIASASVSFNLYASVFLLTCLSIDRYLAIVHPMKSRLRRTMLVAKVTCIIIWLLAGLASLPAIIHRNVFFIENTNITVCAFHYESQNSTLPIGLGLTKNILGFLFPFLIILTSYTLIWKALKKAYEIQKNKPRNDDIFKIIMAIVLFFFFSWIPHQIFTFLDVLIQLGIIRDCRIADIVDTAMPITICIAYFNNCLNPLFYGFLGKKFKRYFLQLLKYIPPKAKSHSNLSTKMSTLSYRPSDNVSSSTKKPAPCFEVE
# [4] = in vivo; cited from earlier work
compound,measurement,setting,value
CCCc1nc2c(C)cc(-c3nc4ccccc4n3C)cc2n1Cc1ccc(-c2ccccc2C(=O)O)cc1 [Telmisartan],inhibition of O2− generation (antioxidant action),[1],do not have antioxidant actions
same,inhibition at 0.001 µM,[2],6.37%
same,inhibition at 0.01 µM,[3],52.7%
same,half-life,[4],24 h

# — US20230338348A1, “RENIN-ANGIOTENSIN SYSTEM (RAS) MODULATORS FOR TREATMENT OF VIRAL INFECTIONS, PHARMACEUTICAL COMPOSITIONS INCLUDING THE SAME, AND METHODS OF TREATING USING THE SAME” (Trocar Pharma Inc., priority 2020, published 2023)
